Data as given in US8202834B2, “Fat regulation” (FibroGen, Inc., priority 2002, dated 2012).

Assays:
HIF-1α = HIF-1α in nuclear fractions, TRANSAM HIF-1 ELISA; assay type: cell-based, human; settings: 293A and Hep3B cells, vs vehicle; FIG. 8B
Excerpt: Compounds of the present invention for use in the present methods stabilize HIFα, inhibit HIF hydroxylase activity and/or HIFα hydroxylation, etc. Thus, compounds can be identified, e.g., by their ability to stabilize HIFα. Stabilization of HIFα using compounds and methods of the present invention was examined as follows. Human cells derived from adenovirus-transformed fetal kidney epithelium (293A), cervical epithelial adenocarcinoma (HeLa), hepatocellular carcinoma (Hep3B), squamous carcinoma (SSC-25), and lung fibroblast (HLF) tissues (see, e.g., American Type Culture Collection, Manassas Va.; and Qbiogene, Carlsbad Calif.) were separately seeded into 100 mm culture dishes and grown at 37° C., 20% O2, 5% CO2 in media as follows: HeLa cells in Dulbecco's Modification of Eagle's Medium (DMEM), 2% fetal bovine serum (FBS); HLF cells in DMEM, 10% FBS; 293A cells in DMEM, 5% FBS; and Hep3B cells in Minimal Essential Medium (MEM), Earle's BSS (Mediatech Inc., Herndon Va.), 2 mM L-glutamine, 0.1 mM non-essential amino acids, 1 mM sodium pyruvate, 10% FBS. When cell layers reached confluence, the media was replaced with OPTI-MEM media (Invitrogen Life Technologies, Carlsbad Calif.) and cell layers were incubated for approximately 24 hours in 20% O2, 5% CO2 at 37° C. A compound of the invention (compound B, D, F, G, or H) or vehicle control (0.5 to 1% DMSO) was then added to existing medium, and incubation was continued overnight.
Alternatively, nuclear fractions were prepared using a nuclear extract kit (Active Motif, Carlsbad Calif.) and were analyzed for HIF-1α using a TRANSAM HIF-1 ELISA kit (Active Motif) according to the manufacturer's instructions.

[1] = Diet-induced obesity model, high-fat diet, 28 days; assay type: in vivo, C57BL/6J mice; settings: 75 mg/kg/day oral gavage, vs high-fat vehicle, p<0.05, FIG. 6A
Description: The effect of the present compounds and methods on fat regulation, e.g., fat uptake and storage, etc., and on regulation of body weight was analyzed as follows. C57Bl/6J mice fed a high-fat diet develop severe obesity, hyperglycemia, and hyperinsulinemia, and are a model of diet-induced obesity, Type 2 diabetes, and impaired glucose tolerance. Forty male C57BL/6J mice obtained from The Jackson Laboratory (Bar Harbor Me.) were divided into the following experimental groups: Group 1: vehicle control animals fed standard mouse chow (n=10); Group 2: vehicle control animals fed high-fat mouse chow (45% fat from Research Diets) (n=10); Group 3: animals fed high-fat mouse chow and administered 75 mg/kg/day compound E by oral gavage (n=10); Group 4: animals fed high-fat mouse chow and administered 75 mg/kg/day compound A by oral gavage (n=10). The feeding regimen was continued for 28 days with weekly measurement of body weight. Animals were then sacrificed and their organs and fat pads were harvested and weighed.

Compound	stabilization and accumulation of HIFα (HIF-1α)	weight gain [1]
CC(C)Oc1ccc2nc(C(=O)NCC(=O)O)c(O)cc2c1 [compound F, [(3-Hydroxy-6-isopropoxy-quinoline-2-carbonyl)-amino]-acetic acid]	stabilization and accumulation of HIFα	
O=C(O)CNC(=O)c1nc2cc(Cl)ccc2cc1O [compound A, [(7-Chloro-3-hydroxy-quinoline-2-carbonyl)-amino]-acetic acid]		significantly less weight gain
COC(=O)CNC(=O)c1nc(Cl)c2cc(OCc3ccccc3)ccc2c1O [compound H, [(7-Benzyloxy-1-chloro-4-hydroxy-isoquinoline-3-carbonyl)-amino]-acetic acid methyl ester]	stabilization and accumulation of HIFα	
O=C(O)CNC(=O)c1ncccc1O [compound G, [(3-Hydroxy-pyridine-2-carbonyl)-amino]-acetic acid]	stabilization and accumulation of HIFα	
COc1ccc2c(O)c(C(=O)NCC(=O)O)nc(Cl)c2c1 [compound E, [(1-Chloro-4-hydroxy-7-methoxy-isoquinoline-3-carbonyl)-amino]-acetic acid]		significantly less weight gain
